# Test results reported in US10993919B2, “Chondroprotective nanoparticles for the treatment of osteoarthritis” (University of Florida Research Foundation, Inc., priority 2016, dated 2021).
# System: fat pad-derived MSCs
# Assay: MSC migration in Boyden chamber plates
# Format: cell-based
# Conditions: MSCs isolated from the fat pad of the joint; preliminary
# Method: To determine if there are inherent differences in the migratory activity of the different MSC populations, migration in response to serum is first evaluated using 96-well Boyden chamber plates. To simulate OA conditions, MSC migration is evaluated in response to IL-1β (10 ng/mL and 50 ng/mL), conditioned medium from the established OA cartilage explants, and conditioned medium from normal explants. Results from each group are compared with a positive control of media with 10% serum to determine if the experimental conditions increase or decrease migration of MSCs.
# The response of MSCs to chondroinductive agents is evaluated, specifically platelet-derived growth factor (PDGF-BB) and kartogenin (KGN), which were selected based on their pleiotropic effects on promoting both migration and chondrogenesis of MSCs without adverse effects in the OA joint. PDGF-BB exerts chemotactic effects on bone marrow-derived MSCs, and facilitates new cartilage formation in the presence of IL-1β (Montaseri, A., et al. PloS one 6:e28663 (2011)). […] Kartogenin has been implicated in stimulating MSC recruitment in vivo, however, there are no reported migration studies with KGN, and therefore, the underlying mechanism for KGN-mediated recruitment is largely unknown. […]
substance,measurement,value
IL-1β: predominant pro-inflammatory cytokine in OA,MSC migration,may indeed inhibit migration
